The nature of series [1]: Pharmacokinetic study in rat plasma after oral administration of Flos Chrysanthemi extract (UPLC-MS/MS). The note with it: rats, oral Flos Chrysanthemi extract 10 g/kg; for AUC(0-inf) / Cmax / Tmax / half-life / AUC / k el: male, Sprague-Dawley, rat, plasma, n = 6; for AUC: read-out: AUC(0 − tn); for k el: read-out: Ke (converted); for Detection in plasma over the sampling time: result in words. Type of series: in vivo, Sprague-Dawley rats. On the procedure: Six male Sprague-Dawley rats (250 ± 5 g) were purchased from Huafukang Bioscience Co., Inc. (Beijing, China). The rats were adapted to the facility for a week. Before the experiments, rats were fasted for 12 h, although drinking water was readily accessible. Flos Chrysanthemi extract was dissolved in CMC-Na aqueous solution and orally administered to the animals once at 10 g/kg. Blood samples (220 μL) were taken from the orbital venous plexus of rats at 0, 0.03, 0.08, 0.17, 0.25, 0.5, 1, 2, 4, 6, 8, 10, 12, and 24 h after extract administration. Blood samples were promptly centrifuged at 6000 rpm for 10 min, and plasma samples were collected. The obtained plasma was stored at -80°C until analysis. “Drug and Statistics 3.0” software (Medical College of Wannan, China) was used to calculate pharmacokinetic parameters. The animal protocol was approved by the Animal Ethics Committee of Tianjin University of Traditional Chinese Medicine (TCM-LAEC20190056).
Plasma samples from rats orally administered with Flos Chrysanthemi extract (10.0 g/kg) were analysed with UPLC-MS/MS. Plasma concentration-time curves are shown in Figure 3, and the primary pharmacokinetic parameters of each analyte are summarized in Table 6.

Series [2] is described as follows: Stability of analytes in rat plasma (QC samples under four storage conditions). To be noted: n = 6. Type of series: in vitro ADME. Here is the method: To study the stability of all compounds in rat plasma, low, medium, and high concentrations of QC samples were tested under the following test conditions: stored at an autosampler for 12 hours, stored at room temperature for 6 hours, put through three freeze/thaw cycles, and stored at -80°C for 14 days. Three QC concentrations were tested for each of the above conditions.
The stability of all 13 analytes during sample collection and processing was evaluated with the various storage conditions being tested on spiked plasma samples at three QC concentrations.

Where [3] appears, read: spiked concentration 2000 ng/mL.
Where [4] appears, read: spiked concentration 4000 ng/mL.
The mark [5] stands for this setting: spiked concentration 1000 ng/mL.

In general, AUC(0-inf) refers to total exposure, with the tail of the curve extrapolated. The low end stands for less exposure, the high end for more exposure. Broadly, the Cmax is the maximum level reached in the sampled fluid or tissue. As usually defined, the Tmax is the time from dosing to the highest level. What is called half-life is the time needed for the level to fall by half in the phase considered. A higher half-life goes with slow decline. In general, AUC refers to concentration integrated over time. Take `O=C(O)[C@H]1O[C@@H](Oc2cc(O)c3c(=O)cc(-c4ccc(O)c(O)c4)oc3c2)[C@H](O)[C@@H](O)[C@@H]1O` [Luteolin 7-O-glucuronide]: in series [1], the total exposure AUC(0-inf) came to 6730 ± 2280 ng·h/mL, the highest concentration (Cmax) was 749 ± 195 ng/mL, the time of peak concentration (Tmax) was determined as 0.5 ± 0.27 h and the half-life is 6.17 ± 1.43 h. For the same compound, in series [1], the area under the curve (AUC) is 6450 ± 1810 ng·h/mL and the k el is 3.33e-05 s⁻¹. In series [2] (spiked concentration 10 ng/mL), the “Measured concentration, -80°C for 14 days” value is recorded as 8.8 ± 0.2 ng/mL; the “Measured concentration, Autosampler for 12 h” value is reported as 9.6 ± 0.3 ng/mL; the “Measured concentration, Room temperature for 6 h” value (shortened to “Measured concentration … for 6 h”) amounted to 10.9 ± 0.8 ng/mL; the “Measured concentration, Three freeze-thaw cycles” value was found to be 11.1 ± 0.1 ng/mL. Further, in series [2] (spiked concentration 100 ng/mL), the “Measured concentration, -80°C for 14 days” value amounted to 99.7 ± 0.3 ng/mL; the “Measured concentration, Autosampler for 12 h” value turned out to be 90.7 ± 0.4 ng/mL; the “Measured concentration … for 6 h” value is reported as 110.9 ± 1.2 ng/mL; the “Measured concentration, Three freeze-thaw cycles” value turned out to be 112.6 ± 0.5 ng/mL. Besides, in series [2] (setting [3]), the “Measured concentration, -80°C for 14 days” value came out at 1930.7 ± 22.5 ng/mL; the “Measured concentration, Autosampler for 12 h” value came out at 1960.1 ± 38.5 ng/mL; the “Measured concentration … for 6 h” value came to 2214.4 ± 17.9 ng/mL; the “Measured concentration, Three freeze-thaw cycles” value is 2225.7 ± 9.3 ng/mL.

As for `O=c1cc(-c2ccc(O)c(O)c2)oc2cc(O)cc(O)c12` [Luteolin], in series [1], the area under the curve AUC(0-inf) is 25100 ± 2230 ng·h/mL, the Cmax came out at 2080 ± 307 ng/mL, the time of peak concentration (Tmax) amounted to 0.5 h and the half-life was 8.89 ± 4.01 h. Also, in series [1], the exposure (AUC) is 24200 ± 2110 ng·h/mL and the k el is 2.78e-05 s⁻¹. Also, in series [2] (spiked concentration 20 ng/mL), the “Measured concentration, -80°C for 14 days” value is recorded as 17.4 ± 0.3 ng/mL; the “Measured concentration, Autosampler for 12 h” value is 21.3 ± 0.4 ng/mL; the “Measured concentration … for 6 h” value is on record as 20.3 ± 0.3 ng/mL; the “Measured concentration, Three freeze-thaw cycles” value was 23.2 ± 0.7 ng/mL. In series [2] (spiked concentration 200 ng/mL), the “Measured concentration, -80°C for 14 days” value came out at 195.1 ± 2.6 ng/mL; the “Measured concentration, Autosampler for 12 h” value was determined as 181.7 ± 0.8 ng/mL; the “Measured concentration … for 6 h” value came out at 193.5 ± 3.3 ng/mL; the “Measured concentration, Three freeze-thaw cycles” value turned out to be 223.7 ± 1.5 ng/mL. Also, in series [2] (setting [4]), the “Measured concentration, -80°C for 14 days” value came out at 4195.2 ± 15.1 ng/mL; the “Measured concentration, Autosampler for 12 h” value is 3656.3 ± 33.7 ng/mL; the “Measured concentration … for 6 h” value was determined as 4419.0 ± 9.2 ng/mL; the “Measured concentration, Three freeze-thaw cycles” value is listed as 4475.1 ± 11.8 ng/mL.

Consider `COc1ccc(-c2cc(=O)c3c(O)cc(O)cc3o2)cc1` [Acacetin], for which the “Detection in plasma over the sampling time” value in series [1] was “detected only at the first few blood sampling points”. For the same compound, in series [2] (spiked concentration 5 ng/mL), the “Measured concentration, -80°C for 14 days” value is reported as 4.5 ± 0.1 ng/mL; the “Measured concentration, Autosampler for 12 h” value was determined as 5.3 ± 0.1 ng/mL; the “Measured concentration … for 6 h” value is 4.6 ± 0.1 ng/mL; the “Measured concentration, Three freeze-thaw cycles” value is recorded as 5.8 ± 0.1 ng/mL. In series [2] (spiked concentration 50 ng/mL), the “Measured concentration, -80°C for 14 days” value is reported as 50.5 ± 0.7 ng/mL; the “Measured concentration, Autosampler for 12 h” value is 47.8 ± 0.7 ng/mL; the “Measured concentration … for 6 h” value came out at 50.3 ± 0.8 ng/mL; the “Measured concentration, Three freeze-thaw cycles” value is on record as 50.2 ± 5.7 ng/mL. For the same compound, in series [2] (setting [5]), the “Measured concentration, -80°C for 14 days” value stood at 977.4 ± 57.9 ng/mL; the “Measured concentration, Autosampler for 12 h” value came out at 1030.3 ± 4.9 ng/mL; the “Measured concentration … for 6 h” value was 1126.2 ± 9.5 ng/mL; the “Measured concentration, Three freeze-thaw cycles” value is listed as 1032.7 ± 5.6 ng/mL.

On to Isoquercitrin, for which the “Detection in plasma over the sampling time” value in series [1] is given as “detected only at the first few blood sampling points”. Further, in series [2] (spiked concentration 5 ng/mL), the “Measured concentration, -80°C for 14 days” value was 4.5 ± 0.1 ng/mL; the “Measured concentration, Autosampler for 12 h” value stood at 4.0 ± 0.2 ng/mL; the “Measured concentration … for 6 h” value was found to be 4.7 ± 0.2 ng/mL; the “Measured concentration, Three freeze-thaw cycles” value amounted to 5.6 ± 0.1 ng/mL. In addition, in series [2] (spiked concentration 50 ng/mL), the “Measured concentration, -80°C for 14 days” value was 50.7 ± 2.1 ng/mL; the “Measured concentration, Autosampler for 12 h” value was found to be 41.6 ± 0.5 ng/mL; the “Measured concentration … for 6 h” value was 49.0 ± 1.2 ng/mL; the “Measured concentration, Three freeze-thaw cycles” value is recorded as 54.5 ± 0.8 ng/mL. In series [2] (setting [5]), the “Measured concentration, -80°C for 14 days” value was found to be 1006.3 ± 30.5 ng/mL and the “Measured concentration, Three freeze-thaw cycles” value stood at 1110.5 ± 21.8 ng/mL.

In the case of `O=c1cc(-c2ccc(O)cc2)oc2cc(O[C@@H]3O[C@H](CO)[C@@H](O)[C@H](O)[C@H]3O)cc(O)c12` [Apigenin 7-glucoside], in series [1], the AUC(0-inf) is 1470 ± 614 ng·h/mL, the Cmax worked out at 96.4 ± 24.8 ng/mL, the Tmax came out at 0.69 ± 0.49 h and the half-life is 13.9 ± 10.2 h. For the same compound, in series [1], the AUC was determined as 1320 ± 489 ng·h/mL and the k el was 6.94e-05 s⁻¹. In series [2] (spiked concentration 5 ng/mL), the “Measured concentration, -80°C for 14 days” value was determined as 5.1 ± 0.2 ng/mL; the “Measured concentration, Autosampler for 12 h” value was determined as 4.3 ± 0.1 ng/mL; the “Measured concentration … for 6 h” value is 5.9 ± 0.1 ng/mL; the “Measured concentration, Three freeze-thaw cycles” value is 5.6 ± 0.4 ng/mL. Also, in series [2] (spiked concentration 50 ng/mL), the “Measured concentration, -80°C for 14 days” value is 51.1 ± 0.4 ng/mL; the “Measured concentration, Autosampler for 12 h” value is recorded as 44.5 ± 0.7 ng/mL; the “Measured concentration … for 6 h” value is on record as 50.5 ± 1.0 ng/mL; the “Measured concentration, Three freeze-thaw cycles” value is on record as 53.7 ± 0.6 ng/mL. In addition, in series [2] (setting [5]), the “Measured concentration, -80°C for 14 days” value turned out to be 1108.3 ± 25.6 ng/mL; the “Measured concentration, Autosampler for 12 h” value is 1077.6 ± 9.6 ng/mL; the “Measured concentration … for 6 h” value was determined as 1086.7 ± 12.9 ng/mL; the “Measured concentration, Three freeze-thaw cycles” value came to 1112.8 ± 7.2 ng/mL.

For the compound `COc1ccc(-c2cc(=O)c3c(O)cc(O[C@@H]4O[C@H](CO)[C@@H](O)[C@H](O)[C@H]4O)cc3o2)cc1` [Tilianin], the “Detection in plasma over the sampling time” value in series [1] is given as “detected only at the first few blood sampling points”. Also, in series [2] (spiked concentration 1 ng/mL), the “Measured concentration, -80°C for 14 days” value is 0.9 ± 0.1 ng/mL; the “Measured concentration, Autosampler for 12 h” value turned out to be 0.9 ± 0.1 ng/mL; the “Measured concentration … for 6 h” value was found to be 1.1 ± 0.1 ng/mL; the “Measured concentration, Three freeze-thaw cycles” value was determined as 1.0 ± 0.1 ng/mL. Besides, in series [2] (spiked concentration 10 ng/mL), the “Measured concentration, -80°C for 14 days” value is on record as 10.2 ± 0.2 ng/mL; the “Measured concentration, Autosampler for 12 h” value was 9.3 ± 0.1 ng/mL; the “Measured concentration … for 6 h” value is recorded as 9.9 ± 0.3 ng/mL; the “Measured concentration, Three freeze-thaw cycles” value came to 11.3 ± 0.2 ng/mL. Also, in series [2] (spiked concentration 200 ng/mL), the “Measured concentration, -80°C for 14 days” value was found to be 188.6 ± 0.9 ng/mL; the “Measured concentration, Autosampler for 12 h” value is reported as 179.0 ± 1.2 ng/mL; the “Measured concentration … for 6 h” value is 226.4 ± 0.2 ng/mL; the “Measured concentration, Three freeze-thaw cycles” value turned out to be 209.6 ± 0.3 ng/mL.

For the origin of these results see publication PMC7456477, “Pharmacokinetic Study of Thirteen Ingredients after the Oral Administration of Flos Chrysanthemi Extract in Rats by UPLC-MS/MS” (BioMed Research International, 2020).
